Experimental data published in patent US20240368640A1, “METHODS OF PURIFYING CANNABINOIDS” (AMYRIS, INC., priority 2021, published 2024).
Entries after “also recorded” stand apart in the source; their conditions may differ.

Legend:
[1] = Visual assessment of CBDA solubility in overlay oils; assay type: physicochemical; conditions: CBDA as hemp oil with 50% CBDA, target concentration greater than 50 g/L
Protocol: Visual appearances of solutions containing CBDA (as hemp oil with 50% CBDA) were assessed for JARCOL™ I-16, soybean oil, castor oil, ESTEREX™ A 51, sunflower oil, DRAKEOL® 19, and DURASYN® 164. A target CBD concentration of greater than 50 g/L was desired for this set of experiments. Upon visual inspection, it was determined that CBDA was soluble in JARCOL™ I-16, soybean oil, castor oil, ESTEREX™ A 51, and sunflower oil, but was insoluble in DRAKEOL® 19 and DURASYN® 164 at the target concentration. Insolubility was evidenced by the presence of precipitates in solutions of DRAKEOL® 19 or DURASYN® 164 (FIG. 9).

[2] = tested on: wild-type yeast (strain Y46850); assay: Growth of wild-type yeast in culture media containing an overlay oil (optical density); assay type: cell-based, S. cerevisiae
Protocol: The ability of yeast cells (S. cerevisiae) to grow normally in culture media containing an overlay oil was assessed. Wild-type yeast (strain Y46850) was cultured in the presence of soybean oil, sunflower oil, safflower oil, castor oil, or JARCOL™ I-16. Cell growth was measured by assessing the optical density (OD) of the yeast culture suspensions in three independent experiments (SF1, SF2, and SF3) (FIGS. 1-3).

[3] = Solubility of hexanoate in soybean oil by gas chromatography (GC-FID); conditions: oil or lipid
[4] = oil/hemp oil 10:1 v/v, visual inspection
[5] = oil/hemp oil 10:1 v/v, visual inspection (precipitates)

## C=C(C)[C@@H]1CCC(C)=C[C@H]1c1c(O)cc(CCCCC)c(C(=O)O)c1O [CBDA, cannabidiolic acid]
[1]; [4]
  Solubility of CBDA in JARCOL I-16: soluble; also recorded: good solubility
  Solubility of CBDA in castor oil: soluble; also recorded: good solubility
  Solubility of CBDA in soybean oil: soluble; also recorded: good solubility
[1]; [5]
  Solubility of CBDA in DRAKEOL 19: insoluble; also recorded: lower solubility
  Solubility of CBDA in DURASYN 164: insoluble; also recorded: lower solubility
[1]; visual inspection
  Solubility of CBDA in ESTEREX A 51: soluble
  Solubility of CBDA in sunflower oil: soluble

## CCCCCCCCC(CO)CCCCCC (centres unmarked) [JARCOL™ I-16]
[2]; flask experiment SF2, strain Y46850 (FIG. 2)
  Cell growth (optical density) versus control (no oil): not significantly different
[2]; flask experiment SF3, strain Y46850 (FIG. 3)
  Cell growth (optical density) versus control (no oil): not significantly different
[2]; wild-type yeast strain Y46850 cultured with overlay oil, three independent experiments SF1, SF2, SF3
  Cell growth (optical density) versus control (no oil): not significantly different

## CCCCCC(=O)O [hexanoate]
[3]
  solubility: ≤ 185 mg/mL
